One compound from BindingDB's records for doi:10.1016/s0960-894x(01)00701-6 (Pfizer, 2001) can be followed below.

The experiment in a line: Ability to inhibit human tissue plasminogen activator stimulator.

The structures appear in SMILES notation.

As to `Cc1ccc(N=C(N)N)nc1` [N-(5-Methyl-pyridin-2-yl)-guanidine], the inhibition constant (Ki) (in general, the equilibrium dissociation constant of an inhibitor or competing ligand from its target) was found to be 245 µM.
